Reference: patent US20150065416A1, “NOVEL DRUG COMBINATION” (FAB PHARMA SAS, priority 2013, published 2015)
≈ marks a conversion by molar mass, not a printed value. Where two headings read alike, the source gives them in different places.

Tests used:
Assay type in all cases: cell-based, Acinetobacter baumannii
A. baumannii isolates [1] = test: Checkerboard testing (compound (I)/antibacterial agent interaction, FIC index)
Outline: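 Two-fold dilutions of compound (I) alone or combined with amikacin, gentamicin, colistin, meropenem or tobramycin (0.25–2×MIC) were tested against 20 isolates (susceptible, amikacin-, colistin-, meropenem-resistant). Inoculum was ~4-5×10^4 CFU/ml, incubated at 35° C for 16-20 h. Interaction was scored by FIC index: ≤0.5 synergy, >4 antagonism.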

A. baumannii isolates [2] = test: Time kill study (Example 4); settings: for Time to kill 99.9%: alone; for MIC: Acinetobacter baumannii, read-out: MIC
Description: A total of 12 isolates were tested (three per sub-group either susceptible, meropenem-resistant, amikacin-resistant or colistin-resistant). Two combinations were tested per isolate. Time-kill kinetics were performed by testing compound (I) and an additional antibacterial agent (amikacin, colistin and meropenem) individually at 1× and 4× the corresponding MIC of each antibacterial agent. […] Samples were taken at 0, 2, 4, 8 and 24 hours in order to determine colony forming units (CFU/mL).
Time-kill studies were carried out as described in General Procedures using combinations of compound (I) with amikacin, meropenem and colistin, respectively.

[3] = system: A. baumannii CIP 5377, CIP 7034, AYE, SAN, RCH; test: Antimicrobial susceptibility testing (MIC, broth microdilution, EUCAST; Example 5); settings: Acinetobacter baumannii
Source text: A. baumannii CIP 5377 (ATCC® 17978): low cephalosporinase producing strain, susceptible to meropenem and amikacin, isolated in an infected patient
A. baumannii CIP 7034: low cephalosporinase producing strain, susceptible to meropenem and amikacin A. baumannii AYE ATCC® BAA1710™: extended spectrum beta-lactamase producing strain susceptible to meropenem and resistant to amikacin
A. baumannii SAN-94040 (SAN): cephalosporinase-overproducing strain, susceptible to meropenem and intermediate to amikacin and resistant to fluoroquinolones, isolated from blood cultures of an intensive care patient with nosocomial pneumonia from North Africa (Algeria).
A. baumannii RCH-69: cephalosporinase producing strain; low susceptibility to imipenem and resistant to amikacin.

Q: With `CCc1cc(O)c(Oc2ccc(C(N)=O)cc2F)cc1F` [compound (I), 4-(4-ethyl-5-fluoro-2-hydroxyphenoxy)-3-fluorobenzamide] as the compound, how does the MIC (A. baumannii isolates [1]; A. baumannii 441142, colistin-resistant) read?
A: Its MIC is 2 µg/mL.

Q: And the MIC (A. baumannii isolates [1]; A. baumannii 441160, colistin-resistant)?
A: Its MIC is 4 µg/mL.

Q: And the MIC (A. baumannii isolates [1]; A. baumannii 463996, colistin-resistant)?
A: The MIC was 2 µg/mL.

Q: What about the MIC (A. baumannii isolates [1]; A. baumannii 466936, colistin-resistant) of the same compound?
A: Its MIC is 16 µg/mL.

Q: What about the MIC (A. baumannii isolates [1]; A. baumannii 618649, meropenem-resistant) of the same compound?
A: Its MIC is 4 µg/mL.

Q: And the MIC (A. baumannii isolates [1]; A. baumannii 638115, amikacin-resistant)?
A: The MIC was 8 µg/mL.

Q: What about the MIC (A. baumannii isolates [1]; A. baumannii 655932, amikacin-resistant) of the same compound?
A: Its MIC is 2 µg/mL.

Q: And the MIC (A. baumannii isolates [1]; A. baumannii 661954, amikacin-resistant)?
A: The MIC was 8 µg/mL.

Q: What about the MIC (A. baumannii isolates [1]; A. baumannii 667848, meropenem-resistant) of the same compound?
A: Its MIC is 8 µg/mL.

Q: And the MIC (A. baumannii isolates [1]; A. baumannii 670348, susceptible)?
A: The MIC was 4 µg/mL.

Q: And the MIC (A. baumannii isolates [1]; A. baumannii 671050, meropenem-resistant)?
A: Its MIC is 8 µg/mL.

Q: And the MIC (A. baumannii isolates [1]; A. baumannii 672190, susceptible)?
A: The MIC was 4 µg/mL.

Q: And the MIC (A. baumannii isolates [1]; A. baumannii 674340, susceptible)?
A: Its MIC is 1 µg/mL.

Q: And the MIC (A. baumannii isolates [1]; Acinetobacter baumannii, A. baumannii 441142, colistin-resistant, read-out: MIC)?
A: Its MIC is 4 µg/mL.

Q: And the MIC (A. baumannii isolates [1]; Acinetobacter baumannii, A. baumannii 441160, colistin-resistant, read-out: MIC)?
A: Its MIC is 8 µg/mL.

Q: And the MIC (A. baumannii isolates [1]; Acinetobacter baumannii, A. baumannii 463996, colistin-resistant, read-out: MIC)?
A: Its MIC is 4 µg/mL.

Q: And the MIC (A. baumannii isolates [1]; Acinetobacter baumannii, A. baumannii 466936, colistin-resistant, read-out: MIC)?
A: Its MIC is 8 µg/mL.

Q: What about the MIC (A. baumannii isolates [1]; Acinetobacter baumannii, A. baumannii 517303, colistin-resistant, read-out: MIC) of the same compound?
A: The MIC was 4 µg/mL.

Q: And the MIC (A. baumannii isolates [1]; Acinetobacter baumannii, A. baumannii 618649, meropenem-resistant, read-out: MIC)?
A: The MIC was 2 µg/mL.

Q: And the MIC (A. baumannii isolates [1]; Acinetobacter baumannii, A. baumannii 625917, meropenem-resistant, read-out: MIC)?
A: Its MIC is 4 µg/mL.

Q: What about the MIC (A. baumannii isolates [1]; Acinetobacter baumannii, A. baumannii 628760, susceptible, read-out: MIC) of the same compound?
A: The MIC was 2 µg/mL.

Q: What about the MIC (A. baumannii isolates [1]; Acinetobacter baumannii, A. baumannii 637723, amikacin-resistant, read-out: MIC) of the same compound?
A: The MIC was 2 µg/mL.

Q: And the MIC (A. baumannii isolates [1]; Acinetobacter baumannii, A. baumannii 638115, amikacin-resistant, read-out: MIC)?
A: Its MIC is 4 µg/mL.

Q: And the MIC (A. baumannii isolates [1]; Acinetobacter baumannii, A. baumannii 650216, meropenem-resistant, read-out: MIC)?
A: Its MIC is 8 µg/mL.

Q: And the MIC (A. baumannii isolates [1]; Acinetobacter baumannii, A. baumannii 655932, amikacin-resistant, read-out: MIC)?
A: Its MIC is 4 µg/mL.

Q: What about the MIC (A. baumannii isolates [1]; Acinetobacter baumannii, A. baumannii 661954, amikacin-resistant, read-out: MIC) of the same compound?
A: The MIC was 4 µg/mL.

Q: What about the MIC (A. baumannii isolates [1]; Acinetobacter baumannii, A. baumannii 667848, meropenem-resistant, read-out: MIC) of the same compound?
A: The MIC was 4 µg/mL.

Q: What about the MIC (A. baumannii isolates [1]; Acinetobacter baumannii, A. baumannii 670348, susceptible, read-out: MIC) of the same compound?
A: The MIC was 2 µg/mL.

Q: And the MIC (A. baumannii isolates [1]; Acinetobacter baumannii, A. baumannii 671050, meropenem-resistant, read-out: MIC)?
A: The MIC was 4 µg/mL.

Q: And the MIC (A. baumannii isolates [1]; Acinetobacter baumannii, A. baumannii 672190, susceptible, read-out: MIC)?
A: Its MIC is 8 µg/mL.

Q: What about the MIC (A. baumannii isolates [1]; Acinetobacter baumannii, A. baumannii 674340, susceptible, read-out: MIC) of the same compound?
A: The MIC was 2 µg/mL.

Q: What about the “Time to kill 99.9%” value (A. baumannii isolates [2]; AMK-R-1, 1xMIC) of the same compound?
A: The value was greater than 24 h.

Q: What about the “Time to kill 99.9%” value (A. baumannii isolates [2]; AMK-R-1, 4xMIC) of the same compound?
A: The value was greater than 24 h.

Q: And the “Time to kill 99.9%” value (A. baumannii isolates [2]; AMK-R-2, 1xMIC)?
A: Its value is greater than 24 h.

Q: And the “Time to kill 99.9%” value (A. baumannii isolates [2]; AMK-R-2, 4xMIC)?
A: Its value is greater than 24 h.

Q: What about the “Time to kill 99.9%” value (A. baumannii isolates [2]; AMK-R-3, 1xMIC) of the same compound?
A: Its value is greater than 24 h.

Q: What about the “Time to kill 99.9%” value (A. baumannii isolates [2]; AMK-R-3, 4xMIC) of the same compound?
A: The value was greater than 24 h.

Q: What about the MIC (A. baumannii isolates [2]; isolate AMK-R-1) of the same compound?
A: The MIC was 4 µg/mL.

Q: And the MIC (A. baumannii isolates [2]; isolate AMK-R-2)?
A: Its MIC is 4 µg/mL.

Q: What about the MIC (A. baumannii isolates [2]; isolate AMK-R-3) of the same compound?
A: Its MIC is 2 µg/mL.

Q: And the MIC (A. baumannii isolates [2]; isolate COL-R-1)?
A: Its MIC is 8 µg/mL.

Q: And the MIC (A. baumannii isolates [2]; isolate COL-R-2)?
A: The MIC was 4 µg/mL.

Q: What about the MIC (A. baumannii isolates [2]; isolate COL-R-3) of the same compound?
A: Its MIC is 16 µg/mL.

Q: And the MIC (A. baumannii isolates [2]; isolate MPM-R-1)?
A: The MIC was 8 µg/mL.

Q: What about the MIC (A. baumannii isolates [2]; isolate MPM-R-2) of the same compound?
A: The MIC was 4 µg/mL.

Q: And the MIC (A. baumannii isolates [2]; isolate MPM-R-3)?
A: The MIC was 4 µg/mL.

Q: And the MIC (A. baumannii isolates [2]; isolate Sus-1)?
A: The MIC was 1 µg/mL.

Q: And the MIC (A. baumannii isolates [2]; isolate Sus-2)?
A: The MIC was 2 µg/mL.

Q: And the MIC (A. baumannii isolates [2]; isolate Sus-3)?
A: Its MIC is 8 µg/mL.

Q: And the MIC (A. baumannii isolates [2]; isolate printed MPM-R-1 (second such line of Table 8, r14))?
A: Its MIC is 4 µg/mL.

Q: What about the “Time to kill 99.9%” value (A. baumannii isolates [2]; COL-R-1, 1xMIC) of the same compound?
A: Its value is greater than 24 h.

Q: And the “Time to kill 99.9%” value (A. baumannii isolates [2]; COL-R-1, 4xMIC)?
A: Its value is greater than 24 h.

Q: What about the “Time to kill 99.9%” value (A. baumannii isolates [2]; COL-R-2, 1xMIC) of the same compound?
A: Its value is greater than 24 h.

Q: And the “Time to kill 99.9%” value (A. baumannii isolates [2]; COL-R-2, 4xMIC)?
A: The value was greater than 24 h.

Q: And the “Time to kill 99.9%” value (A. baumannii isolates [2]; COL-R-3, 1xMIC)?
A: The value was greater than 24 h.

Q: What about the “Time to kill 99.9%” value (A. baumannii isolates [2]; COL-R-3, 4xMIC) of the same compound?
A: Its value is greater than 24 h.

Q: And the “Time to kill 99.9%” value (A. baumannii isolates [2]; MPM-R-1 (second line, Table 8 r14), 1xMIC)?
A: The value was greater than 24 h.

Q: And the “Time to kill 99.9%” value (A. baumannii isolates [2]; MPM-R-1 (second line, Table 8 r14), 4xMIC)?
A: The value was greater than 24 h.

Q: What about the “Time to kill 99.9%” value (A. baumannii isolates [2]; MPM-R-1, 1xMIC) of the same compound?
A: Its value is greater than 24 h.

Q: What about the “Time to kill 99.9%” value (A. baumannii isolates [2]; MPM-R-1, 4xMIC) of the same compound?
A: The value was greater than 24 h.

Q: What about the “Time to kill 99.9%” value (A. baumannii isolates [2]; MPM-R-2, 1xMIC) of the same compound?
A: Its value is greater than 24 h.

Q: And the “Time to kill 99.9%” value (A. baumannii isolates [2]; MPM-R-2, 4xMIC)?
A: Its value is greater than 24 h.

Q: What about the “Time to kill 99.9%” value (A. baumannii isolates [2]; MPM-R-3, 1xMIC) of the same compound?
A: Its value is greater than 24 h.

Q: And the “Time to kill 99.9%” value (A. baumannii isolates [2]; MPM-R-3, 4xMIC)?
A: The value was greater than 24 h.

Q: What about the “Time to kill 99.9%” value (A. baumannii isolates [2]; Sus-1, 1xMIC) of the same compound?
A: The value was greater than 24 h.

Q: What about the “Time to kill 99.9%” value (A. baumannii isolates [2]; Sus-1, 4xMIC) of the same compound?
A: Its value is greater than 24 h.

Q: And the “Time to kill 99.9%” value (A. baumannii isolates [2]; Sus-2, 1xMIC)?
A: The value was greater than 24 h.

Q: And the “Time to kill 99.9%” value (A. baumannii isolates [2]; Sus-2, 4xMIC)?
A: Its value is greater than 24 h.

Q: What about the “Time to kill 99.9%” value (A. baumannii isolates [2]; Sus-3, 1xMIC) of the same compound?
A: The value was greater than 24 h.

Q: And the “Time to kill 99.9%” value (A. baumannii isolates [2]; Sus-3, 4xMIC)?
A: The value was greater than 24 h.

Q: What about the “effect in time-kill studies when tested alone” value (A. baumannii isolates [2]; alone at 1× or 4×MIC) of the same compound?
A: The value was “bacteriostatic”.

Q: And the MIC ([3]; 5 isolates of A. baumannii, read-out: MICs ranging)?
A: The MIC was 1 to 2 µg/mL (≈ 3.41 to 6.82 µM).

Q: What about the MIC ([3]; A. baumannii AYE, read-out: MIC) of the same compound?
A: The MIC was 2 µg/mL (≈ 6.82 µM).

Q: What about the MIC ([3]; A. baumannii CIP 5377, read-out: MIC) of the same compound?
A: Its MIC is 2 µg/mL (≈ 6.82 µM).

Q: And the MIC ([3]; A. baumannii CIP 7034, read-out: MIC)?
A: The MIC was 1 µg/mL (≈ 3.41 µM).

Q: And the MIC ([3]; A. baumannii RCH, read-out: MIC)?
A: Its MIC is 2 µg/mL (≈ 6.82 µM).

Q: What about the MIC ([3]; A. baumannii SAN, read-out: MIC) of the same compound?
A: Its MIC is 2 µg/mL (≈ 6.82 µM).
